Biological target: Alpha-glucosidase MAL12 (Saccharomyces cerevisiae (strain ATCC 204508 / S288c), UniProt P53341)
Test: α-Glucosidase Inhibitory Activity
Description: The 135 µL of 50 mM phosphate saline buffer pH (6.8) was added in the 96-well plate and 20 µL of test sample with 70% DMSO added into the wells. The solution of Enzyme 20 µL was added into the wells, and incubated the plate for 15 min. After incubation pre-read of the plate was taken by the spectra max. Afterward 25 µL of the substrate (pNPG) was added and a reading was taken on spectra max at 400 nm for 30 min. The normal reading is taken and the percent inhibition was calculated.

Alpha-glucosidase MAL12, sequence (P53341 whole entry): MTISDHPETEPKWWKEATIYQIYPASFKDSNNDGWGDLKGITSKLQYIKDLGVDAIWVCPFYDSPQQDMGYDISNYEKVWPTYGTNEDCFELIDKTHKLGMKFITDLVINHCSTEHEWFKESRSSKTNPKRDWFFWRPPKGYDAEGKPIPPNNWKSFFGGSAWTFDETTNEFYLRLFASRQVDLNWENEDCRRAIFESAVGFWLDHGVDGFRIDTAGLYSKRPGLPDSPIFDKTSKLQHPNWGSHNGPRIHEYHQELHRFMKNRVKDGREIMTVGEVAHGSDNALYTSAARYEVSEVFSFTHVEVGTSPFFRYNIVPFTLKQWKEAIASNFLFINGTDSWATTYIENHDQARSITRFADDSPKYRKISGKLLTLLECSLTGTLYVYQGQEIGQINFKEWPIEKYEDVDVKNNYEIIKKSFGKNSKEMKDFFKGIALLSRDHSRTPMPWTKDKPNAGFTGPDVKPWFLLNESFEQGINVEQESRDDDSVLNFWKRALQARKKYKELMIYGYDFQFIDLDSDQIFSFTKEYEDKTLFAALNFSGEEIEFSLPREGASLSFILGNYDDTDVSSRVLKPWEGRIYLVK

Row | Compound | IC50 [µM]
1 | COc1cc(/C=N/NC(=O)c2cc3ccccc3[nH]2)ccc1O [(E)-N'-(4-hydroxy-3-methoxybenzylidene)-1H-indole-2-carbohydrazide (8)] | 155
2 | O=C(N/N=C/c1cc(O)cc(O)c1)c1cc2ccccc2[nH]1 [(E)-N'-(3,5-dihydroxybenzylidene)-1H-indole-2-carbohydrazide (7)] | 226
3 | O=C(N/N=C/c1cc(O)ccc1O)c1cc2ccccc2[nH]1 [(E)-N'-(2,5-dihydroxybenzylidene)-1H-indole-2-carbohydrazide (3)] | 144
4 | O=C(N/N=C/c1ccc(F)c(Br)c1)c1cc2ccccc2[nH]1 [(E)-N'-(3-Bromo-4-fluorobenzylidene)-1H-indole-2-carbohydrazide (19)] | 26.6
5 | COc1ccc(O)c(/C=N/NC(=O)c2cc3ccccc3[nH]2)c1 [(E)-N'-(2-hydroxy-5-methoxybenzylidene)-1H-indole-2-carbohydrazide (13)] | 49.2
6 | O=C(N/N=C/c1ccc(Cl)cc1)c1cc2ccccc2[nH]1 [(E)-N'-(4-Chlorobenzylidene)-1H-indole-2-carbohydrazide (27)] | 32.1
7 | O=C(N/N=C/c1cccc(O)c1O)c1cc2ccccc2[nH]1 [(E)-N'-(2,3-dihydroxybenzylidene)-1H-indole-2-carbohydrazide (6)] | 86.5
8 | O=C(N/N=C/c1cc(O)c(O)c(O)c1)c1cc2ccccc2[nH]1 [(E)-N'-(3,4,5-trihydroxybenzylidene)-1H-indole-2-carbohydrazide (1)] | 2.3
9 | COc1ccc(/C=N/NC(=O)c2cc3ccccc3[nH]2)c(I)c1O [(E)-N'-(3-hydroxy-2-iodo-4-methoxybenzylidene)-1H-indole-2-carbohydrazide (14)] | 54.6
10 | O=C(N/N=C/c1c(O)cc(O)cc1O)c1cc2ccccc2[nH]1 [(E)-N'-(2,4,6-trihydroxybenzylidene)-1H-indole-2-carbohydrazide (2)] | 49.2
11 | COc1ccc(/C=N/NC(=O)c2cc3ccccc3[nH]2)cc1O [(E)-N'-(3-hydroxy-4-methoxybenzylidene)-1H-indole-2-carbohydrazide (11)] | 191
12 | O=C(N/N=C/c1ccc(O)c(O)c1)c1cc2ccccc2[nH]1 [(E)-N'-(3,4-dihydroxybenzylidene)-1H-indole-2-carbohydrazide (4)] | 41
13 | O=C(N/N=C/c1ccccc1O)c1cc2ccccc2[nH]1 [(E)-N'-(2-hydroxybenzylidene)-1H-indole-2-carbohydrazide (10)] | 42.6
14 | O=C(N/N=C/c1ccc(O)cc1)c1cc2ccccc2[nH]1 [(E)-N'-(4-hydroxybenzylidene)-1H-indole-2-carbohydrazide (9)] | 206
